The experiment concerns immortalized megakaryocyte cell line. In words: Test Example 1: platelet production, shake culturing. The class given is cell-based. The conditions noted are these: for fold induction at 10 µM: Platelet, 144 h, read-out: Amount of platelet production (vs. Control); for Amount of platelet production (vs. Control): aryl hydrocarbon receptor antagonist Compound A5 0.1 μM added at cell seeding, counted after 6 days. As for the experimental part:
The immortalized megakaryocyte cell line obtained according to the method described in WO 2016/204256 was washed twice with D-PBS(−) and then cultured in medium not containing doxycycline to terminate forced expression (cultured under conditions where gene expression is OFF). Shake culturing at 100 rpm was performed in the following medium after the cells were seeded in a 125-mL polycarbonate Erlenmeyer flask (Corning #431143) at 25 mL/flask and a seeding density of 1×10^5 cells/mL. Culturing conditions were 37° C. and 5% CO2. The medium was obtained by adding the following components to IMDM serving as the basal medium (concentrations indicate final concentrations). • FBS 15% • L-Glutamine 2 mM • ITS 100-fold dilution • MTG 450 μM • Ascorbic acid 50 μg/mL • SCF 50 ng/mL • TA-316 0.1 μg/mL • ADAM inhibitor 15 μM • ROCK inhibitor 0.5 μM […] After culturing for 6 days in total, the number of platelets was measured. The measurement method was as follows. The same operation was performed for control. At 6 days after initiation of the culturing under conditions where gene expression was OFF, a part of the culture supernatant was collected, and suspended with the following antibody and Flow-Count Fluorospheres (Beckman Coulter #7547053) to perform staining. • APC-labeled anti-CD41 antibody (BioLegend #303710) • eFluor 450-labeled anti-CD42a antibody (eBioscience #48-0428-42) • PE-labeled anti-CD42b antibody (BioLegend #303906) At 30 minutes after staining, number of platelets (CD41, CD42a and CD42b-positive cells) was counted by using FACSVerse (manufactured by BD Japan) with Flow-Count Fluorospheres. The number of platelets was given as a percentage of the control.

Setting [1] is: DMSO added at cell seeding (no AhR antagonist), compound 10 μM added at Day 3, platelets (CD41, CD42a, CD42b-positive) counted after 6 days.

Each structure is given as a SMILES string. Read-outs that look alike come from different tables or passages of the source.

The source of these data is US20240109842A1, “ACRYLAMIDE COMPOUNDS” (OTSUKA PHARMACEUTICAL CO., LTD., priority 2019, published 2024).

Regarding `COc1cccc2c(/C=C/C(=O)NCCc3cc(F)ccc3-c3ccccc3)c[nH]c12` [Example 12], the fold induction at 10 µM under setting [1] is 1.5 to 6.5. In addition, the “Amount of platelet production (vs. Control)” value (from here on “Amount … (vs. Control)”) (compound 10 μM added at Day 3) was “++ (not less than 6.5 times)”.
As for `COCCOc1ccccc1CCNC(=O)/C=C/c1c[nH]c2c(OC)cccc12` [Example 35], the fold induction at 10 µM under setting [1] was in the range of 1.5 to 6.5. The “Amount … (vs. Control)” value (compound 10 μM added at Day 3) is given as “++ (not less than 6.5 times)”.
For `CCNc1ccccc1CCNC(=O)/C=C/c1c[nH]c2c(OC)cccc12` [Example 5], the fold induction at 10 µM under setting [1] lay within 1.5 to 6.5. Also, the “Amount … (vs. Control)” value (compound 10 μM added at Day 3) is “++ (not less than 6.5 times)”.
Take `COc1cccc2c(/C=C/C(=O)NCCc3cccc4ccc(C)nc34)c[nH]c12` [Example 42]: the fold induction at 10 µM under setting [1] fell in the range of 1.5 to 6.5. Also, the “Amount … (vs. Control)” value (compound 10 μM added at Day 3) is “++ (not less than 6.5 times)”.
As to `COc1cccc2c(/C=C/C(=O)NCCc3ccccc3-c3ccccn3)c[nH]c12` [Example 7], under setting [1], the fold induction at 10 µM fell in the range of 1.5 to 6.5. Further, the “Amount … (vs. Control)” value (compound 10 μM added at Day 3) is reported as “++ (not less than 6.5 times)”.
As to `COc1cccc2c(/C=C/C(=O)NCCc3ccccc3CSC)c[nH]c12` [Example 4], the fold induction at 10 µM lay in the range of 1.5 to 6.5. Besides, the “Amount … (vs. Control)” value (compound 10 μM added at Day 3) is on record as “++ (not less than 6.5 times)”.
With `COC(=O)n1cc(/C=C/C(=O)NCCc2ccccc2-c2ncc(OC)cn2)c2cccc(OC)c21` [Example 55], the fold induction at 10 µM under setting [1] lay in the range of 1.5 to 6.5. For the same compound, the “Amount … (vs. Control)” value (compound 10 μM added at Day 3) is recorded as “++ (not less than 6.5 times)”.
For the compound `COc1cccc2c(/C=C/C(=O)NCCc3sccc3-c3ccccc3)c[nH]c12` [Example 21], the fold induction at 10 µM was 1.5 to 6.5. The “Amount … (vs. Control)” value (compound 10 μM added at Day 3) is on record as “++ (not less than 6.5 times)”.
Regarding `COc1cccc2c(/C=C/C(=O)NCCc3ccccc3-c3ccc(F)cc3)c[nH]c12` [Example 28], the fold induction at 10 µM under setting [1] was in the range of 1.5 to 6.5. For the same compound, under “compound 10 μM added at Day 3”, the “Amount … (vs. Control)” value is on record as “++ (not less than 6.5 times)”.
The like results for `O=C(/C=C/c1c[nH]c2ccccc12)NCCc1ccccc1-c1ncccn1` [Example 47, (E)-3-(1H-indol-3-yl)-N-[2-(2-pyrimidin-2-ylphenyl)ethyl]prop-2-enamide] were, in that order, 1.5 to 6.5 and “++ (not less than 6.5 times)”.
The like results for `COc1cccc2c(/C=C/C(=O)NCCc3ccccc3-c3ncc(F)cn3)c[nH]c12` [Example 51] were, in that order, 1.5 to 6.5 and “++ (not less than 6.5 times)”.
`COc1cccc2c(/C=C/C(=O)N(C)CCc3ccccc3OCC3CC3)cn(C)c12` [Example 10, (E)-N-[2-[2-(cyclopropylmethoxy)phenyl]ethyl]-3-(7-methoxy-1-methylindol-3-yl)-N-methylprop-2-enamide]: the fold induction at 10 µM under setting [1] lay within 1.5 to 6.5. Where the note is “compound 10 μM added at Day 3”, the “Amount … (vs. Control)” value is “++ (not less than 6.5 times)”.
For `COc1cccc2c(/C=C/C(=O)NCCc3sccc3-c3ccco3)c[nH]c12` [Example 31], the fold induction at 10 µM under setting [1] lay in the range of 1.5 to 6.5. Also, the “Amount … (vs. Control)” value (compound 10 μM added at Day 3) is on record as “++ (not less than 6.5 times)”.
For the compound `COc1cccc2c(/C=C/C(=O)NCCc3ccsc3-c3ccccc3)c[nH]c12` [Example 22], the fold induction at 10 µM is 1.5 to 6.5. The “Amount … (vs. Control)” value (compound 10 μM added at Day 3) is reported as “++ (not less than 6.5 times)”.
With `COc1cccc2c(/C=C/C(=O)NCCc3ccccc3-c3cccs3)c[nH]c12` [Example 19, (E)-3-(7-methoxy-1H-indol-3-yl)-N-[2-(2-thiophene-2-ylphenyl)ethyl]prop-2-enamide], the fold induction at 10 µM under setting [1] lay in the range of 1.5 to 6.5. Besides, the “Amount … (vs. Control)” value (compound 10 μM added at Day 3) was “++ (not less than 6.5 times)”.
Taken in the same sequence, the figures for `COc1cccc2c(/C=C/C(=O)NCCc3ccccc3-c3ccco3)c[nH]c12` [Example 26] were 1.5 to 6.5 and “++ (not less than 6.5 times)”.
Taken in the same sequence, the figures for `COc1cccc2c1ccn2/C=C/C(=O)NCCc1ccccc1-c1ncccn1` [Example 39] were 1.5 to 6.5 and “++ (not less than 6.5 times)”.
For `COC(=O)n1cc(/C=C/C(=O)NCCc2ccccc2-c2ccccc2)c2cccc(OC)c21` [Example 43], the fold induction at 10 µM under setting [1] was in the range of 1.5 to 6.5. Besides, the “Amount … (vs. Control)” value (compound 10 μM added at Day 3) was “++ (not less than 6.5 times)”.
On to `COc1cccc2c(/C=C/C(=O)NCCc3ccccc3-c3ccccc3)cn(C)c12` [Example 23], for which the fold induction at 10 µM fell in the range of 1.5 to 6.5. Moreover, the “Amount … (vs. Control)” value (compound 10 μM added at Day 3) is recorded as “++ (not less than 6.5 times)”.
Turning to `COc1cccc2c(/C=C/C(=O)NCCc3sccc3-c3ncccn3)c[nH]c12` [Example 45, (E)-3-(7-methoxy-1H-indol-3-yl)-N-[2-(3-pyrimidin-2-ylthiophen-2-yl)ethyl]prop-2-enamide], the fold induction at 10 µM under setting [1] was 1.5 to 6.5. Besides, the “Amount … (vs. Control)” value (compound 10 μM added at Day 3) is reported as “++ (not less than 6.5 times)”.
Regarding `COc1cccc2c(/C=C/C(=O)NCCc3ccccc3-c3ccsc3)c[nH]c12` [Example 20], the fold induction at 10 µM lay in the range of 1.5 to 6.5. Besides, the “Amount … (vs. Control)” value (compound 10 μM added at Day 3) is given as “++ (not less than 6.5 times)”.
Regarding `COc1cccc2c(/C=C/C(=O)NCCc3ccccc3-c3ccccc3)cn(C(=O)c3ccccc3)c12` [Example 25, (E)-3-(1-benzoyl-7-methoxyindol-3-yl)-N-[2-(2-phenylphenyl)ethyl]prop-2-enamide], under setting [1], the fold induction at 10 µM was 1.5 to 6.5. Further, where the note is “compound 10 μM added at Day 3”, the “Amount … (vs. Control)” value is “++ (not less than 6.5 times)”.
The like results for `COc1cccc2c(/C=C/C(=O)NCCc3occc3-c3ccccc3)c[nH]c12` [Example 44] were, in that order, 1.5 to 6.5 and “++ (not less than 6.5 times)”.
The like results for `COc1cccc2c(/C=C/C(=O)NCCc3ccccc3-n3cccn3)c[nH]c12` [Example 37] were, in that order, 1.5 to 6.5 and “++ (not less than 6.5 times)”.
As to `COc1cccc2c(/C=C/C(=O)NCCc3ccccc3-c3ncccn3)c[nH]c12` [Example 17, (E)-3-(7-methoxy-1H-indol-3-yl)-N-[2-(2-pyrimidin-2-ylphenyl)ethyl]prop-2-enamide], under setting [1], the fold induction at 10 µM is 1.5 to 6.5. The “Amount … (vs. Control)” value (compound 10 μM added at Day 3) is on record as “++ (not less than 6.5 times)”.
In the case of `COc1cccn2c(/C=C/C(=O)NCCc3ccccc3-c3ncccn3)cnc12` [Example 40], the fold induction at 10 µM under setting [1] lay within 1.5 to 6.5. Also, the “Amount … (vs. Control)” value (compound 10 μM added at Day 3) is given as “++ (not less than 6.5 times)”.
Taken in the same sequence, the figures for `COc1nccc2c(/C=C/C(=O)NCCc3ccccc3-c3ncccn3)c[nH]c12` [Example 49] were 1.5 to 6.5 and “++ (not less than 6.5 times)”.
On to `COc1cccc2c(/C=C/C(=O)NCCc3ccccc3-c3ncco3)c[nH]c12` [Example 15], for which the fold induction at 10 µM was above 6.5. For the same compound, the “Amount … (vs. Control)” value (compound 10 μM added at Day 3) is “++ (not less than 6.5 times)”.
For `CCOc1ncccc1CCNC(=O)/C=C/c1c[nH]c2c(OC)cccc12` [Example 29, (E)-N-[2-(2-ethoxypyridine-3-yl)ethyl]-3-(7-methoxy-1H-indol-3-yl)prop-2-enamide], the fold induction at 10 µM under setting [1] fell in the range of 1.5 to 6.5. Moreover, the “Amount … (vs. Control)” value (compound 10 μM added at Day 3) is on record as “++ (not less than 6.5 times)”.
